The text below walks through data of patent publication US5591849A, “Spiro[naphthalene-2(1H),2'-piperidine] and their use” (Takeda Chemical Industries, Ltd., priority 1994, dated 1997).

Each structure is given as a SMILES string. Counter-ions that a name gives are not always drawn.

The first experiment deals with 45Ca2+ uptake. The experiment is described as follows: 45Ca2+ uptake inhibition experiments (veratrine-stimulated, rat cerebral cortex crude synaptosome fraction). Format: biochemical. Particulars: stimulated by 30 μM veratrine, rat cerebral cortex synaptosomes. The procedure:
^45 Ca^2+ uptake inhibition experiments
Rat cerebral cortex was homogenized with a 10-fold volume of 0.32M sucrose solution to yield a crude synaptosome fraction (100×g for 10 minutes, 12,000×g for 20 minutes). This fraction was homogenized in Tris buffer [neutralized with 132 mM sodium chloride, 5 mM potassium chloride, 1.3 mM magnesium chloride, 1.2 mM sodium dihydrogen phosphate, 1.2 mM calcium chloride, 10 mM glucose and 20 mM Tris base, saturated with a mixed gas (95% oxygen and 5% carbon dioxide)]. To 900 μl of this suspension, a DMSO solution (10 μl ) of the test drug was added, followed by 10 minutes of incubation at 37° C. 100 μl (final concentration 30μM) of a veratrine solution (containing 0.18 μci ^45 Ca^2+) was then added, followed by 10 minutes of incubation at 37° C. Subsequently, the reaction mixture was quenched by the addition of 4 ml of an ice cooled EGTA solution (120 mM sodium chloride, 5 mM potassium chloride, 5 mM EGTA, pH 7.5), and subjected to aspiration filtration through a GF/B filter; the filter was washed with two 4 ml portions of a washing solution (132 mM sodium chloride, 5 mM potassium chloride, 1.3 mM magnesium chloride, 1.2 mM calcium chloride, 20 mM Tris base, pH 7.5). The radioactivity on the filter was measured by the liquid scintillation method.
^45 Ca^2+ uptake suppression rates were calculated as follows: [formula]
^45 Ca^2+ uptake stimulated by 30 μM veratrine for 10 minutes in the presence of test drug
B: ^45 Ca^2+ uptake in the absence of veratrine and in the presence of test drug
C: ^45 Ca^2 + uptake stimulated by 30 μM veratrine for 10 minutes in the absence of test drug
D: ^45 Ca^2 + uptake in the absence of veratrine and test drug
For `COc1ccc2c(c1)CCC1(CCCCN1CCCc1ccccc1)C2` (stereo not drawn) [Example 5-9, 3,4-Dihydro-6-methoxy-1'-(3-phenylpropyl)spiro[naphthalene-(1H),2'-piperidine] hydrochloride], the “45Ca Uptake Inhibitory Activity (% inhibition at 10 μM)” value is reported as 92%. On the same count and under the same terms, the same measure for `COc1ccc2c(c1)CCC1(CCCCN1CCOc1ccccc1)C2` (stereo not drawn) [Example 5-10, 3,4-Dihydro-6-methoxy-1'-(2-phenoxyethyl)spiro[naphthalene-(1H),2'-piperidine] hydrochloride]: 88%; for `COc1ccc2c(c1)CCC1(CCCCN1CCCC1CCN(Cc3ccccc3)CC1)C2.Cl.Cl` (stereo not drawn) [Example 5-14, 3,4-Dihydro-6-methoxy-1'-[3-(1-phenylmethylpiperidin-4yl)propyl]spiro[naphthalene-2(1H),2'-piperidine] dihydrochloride]: 74%; for `COc1cccc(N2CCN(CCN3CCCCC34CCc3cc(OC)ccc3C4)CC2)c1.Cl.Cl` (stereo not drawn) [Example 7-1, 3,4-Dihydro-6-methoxy-1'-[2-(4-(3-methoxyphenyl)piperazine-1-yl)ethyl]spiro[naphthalene-2(1H),2'-piperidine] dihydrochloride]: 90%.

Regarding `COc1ccc2c(c1)CCC1(CCCCN1CCN1CCN(c3ccccc3Cl)CC1)C2.Cl.Cl` (stereo not drawn) [Example 7-3, 1'-[2-(4-(2-Chlorophenyl)piperazine-1-yl)ethyl]-3,4-dihydro-6-methoxyspiro[naphthalene-2(1H),2'-piperidine] dihydrochloride], the “45Ca Uptake Inhibitory Activity (% inhibition at 10 μM)” value was found to be 95%. The same measure, in the same setting: the same measure for `COc1ccc2c(c1)CCC1(CCCCN1CCN1CCN(c3ccc(F)cc3)CC1)C2` (stereo not drawn) [Example 7-5, 1'-[2-(4-(4-Fluorophenyl)piperazine-1-yl)ethyl]-3,4-dihydro-6-methoxyspiro[naphthalene-2(1H),2'-piperidine]dihydrochloride]: 87%. Same read-out and setting: to `COc1ccc2c(c1)CCC1(CCCCN1CCN1CCN(c3cccc(C(F)(F)F)c3)CC1)C2.Cl.Cl` (stereo not drawn) [Example 7-6, 1'-[2-(4-(3-Trifluoromethylphenyl)piperazine-1-yl)ethyl]-3,4-dihydro-6-methoxyspiro[naphthalene-2(1H),2'-piperidine] dihydrochloride] belongs 106%; to `COc1ccc2c(c1)CCC1(CCCCN1CCN1CCC(c3ccccc3)CC1)C2.Cl.Cl` (stereo not drawn) [Example 7-9, 3,4-Dihydro-6-methoxy-1'-[2-(4-phenylpiperidine-1-yl)ethyl]spiro[naphthalene-2(1H),2'-piperidine] dihydrochloride], 109%.

The next experiment deals with T1, Monoamine oxidase B (MAO-B) (Rattus norvegicus, UniProt P19643).
T1 construct: Whole rat brains were homogenized in a 10-fold volume of ice cooled 0.32 mM sucrose solution; from tissue; host or cells: whole rat brain homogenate
T1 sequence (P19643 1-520): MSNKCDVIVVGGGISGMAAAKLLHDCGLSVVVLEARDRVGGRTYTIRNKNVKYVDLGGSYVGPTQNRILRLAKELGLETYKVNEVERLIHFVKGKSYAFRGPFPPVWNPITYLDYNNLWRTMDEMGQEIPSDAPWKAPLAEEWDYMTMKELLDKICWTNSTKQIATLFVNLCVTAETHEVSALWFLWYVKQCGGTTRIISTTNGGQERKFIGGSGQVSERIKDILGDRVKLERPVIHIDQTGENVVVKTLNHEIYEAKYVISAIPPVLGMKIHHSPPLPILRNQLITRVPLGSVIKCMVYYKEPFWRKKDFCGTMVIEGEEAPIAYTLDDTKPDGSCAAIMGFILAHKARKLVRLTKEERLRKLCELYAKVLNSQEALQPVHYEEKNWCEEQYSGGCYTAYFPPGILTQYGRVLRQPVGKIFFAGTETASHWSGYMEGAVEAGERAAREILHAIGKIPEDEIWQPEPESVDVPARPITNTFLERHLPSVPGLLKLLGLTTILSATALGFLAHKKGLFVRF
Description: Monoamine oxidase B (MAO-B) inhibitory activity. The format is biochemical.
Conditions: not given
On the procedure:
Monoamine oxidase B (MAO-B) inhibitory activity
Whole rat brains were homogenized in a 10-fold volume of ice cooled […] sucrose solution and diluted with a 10-fold volume of 10 mM phosphate buffer (pH 7.4). To 90 μl of this enzyme specimen, 1 μl of the test drug solution was added, followed by 10 minutes of incubation at 37° C. To the mixture, 10 μM of 14C-phenylethylamine was added, followed by 5 minutes of incubation at 37° C. After the reaction was stopped by the addition of 20 μl of 3M hydrochloric acid, 1 ml of water-saturated toluene-ethyl acetate (1:1) was added. The radioactivity of the metabolite migrated in the organic layer was measured by the liquid scintillation method.
As a reminder, the IC50 is the concentration that gives 50% inhibition. A lower IC50 goes with inhibition by little substance. `CCCN1CCCCC12CCc1cc(OCc3ccsc3)ccc1C2` (stereo not drawn) [Example 9-45, 3,4-Dihydro-1'-propyl-6-(3-thienylmethoxy)spiro[naphthalene-2(1H),2'-piperidine] hydrochloride] had an IC50 of 60 nM. That is a double-digit nanomolar value.
